From ChEMBL document CHEMBL1681739, “KDR inhibitor with the intramolecular non-bonded interaction: conformation-activity relationships of novel indole-3-carboxamide derivatives” (Bioorg Med Chem Lett, 2011)

What follows are compounds tested against T1, Vascular endothelial growth factor receptor 2 (Homo sapiens, UniProt P35968) (assay: Inhibition of KDR assessed as phosphorylation level of substrate by ELISA).
T1 sequence (P35968 whole entry): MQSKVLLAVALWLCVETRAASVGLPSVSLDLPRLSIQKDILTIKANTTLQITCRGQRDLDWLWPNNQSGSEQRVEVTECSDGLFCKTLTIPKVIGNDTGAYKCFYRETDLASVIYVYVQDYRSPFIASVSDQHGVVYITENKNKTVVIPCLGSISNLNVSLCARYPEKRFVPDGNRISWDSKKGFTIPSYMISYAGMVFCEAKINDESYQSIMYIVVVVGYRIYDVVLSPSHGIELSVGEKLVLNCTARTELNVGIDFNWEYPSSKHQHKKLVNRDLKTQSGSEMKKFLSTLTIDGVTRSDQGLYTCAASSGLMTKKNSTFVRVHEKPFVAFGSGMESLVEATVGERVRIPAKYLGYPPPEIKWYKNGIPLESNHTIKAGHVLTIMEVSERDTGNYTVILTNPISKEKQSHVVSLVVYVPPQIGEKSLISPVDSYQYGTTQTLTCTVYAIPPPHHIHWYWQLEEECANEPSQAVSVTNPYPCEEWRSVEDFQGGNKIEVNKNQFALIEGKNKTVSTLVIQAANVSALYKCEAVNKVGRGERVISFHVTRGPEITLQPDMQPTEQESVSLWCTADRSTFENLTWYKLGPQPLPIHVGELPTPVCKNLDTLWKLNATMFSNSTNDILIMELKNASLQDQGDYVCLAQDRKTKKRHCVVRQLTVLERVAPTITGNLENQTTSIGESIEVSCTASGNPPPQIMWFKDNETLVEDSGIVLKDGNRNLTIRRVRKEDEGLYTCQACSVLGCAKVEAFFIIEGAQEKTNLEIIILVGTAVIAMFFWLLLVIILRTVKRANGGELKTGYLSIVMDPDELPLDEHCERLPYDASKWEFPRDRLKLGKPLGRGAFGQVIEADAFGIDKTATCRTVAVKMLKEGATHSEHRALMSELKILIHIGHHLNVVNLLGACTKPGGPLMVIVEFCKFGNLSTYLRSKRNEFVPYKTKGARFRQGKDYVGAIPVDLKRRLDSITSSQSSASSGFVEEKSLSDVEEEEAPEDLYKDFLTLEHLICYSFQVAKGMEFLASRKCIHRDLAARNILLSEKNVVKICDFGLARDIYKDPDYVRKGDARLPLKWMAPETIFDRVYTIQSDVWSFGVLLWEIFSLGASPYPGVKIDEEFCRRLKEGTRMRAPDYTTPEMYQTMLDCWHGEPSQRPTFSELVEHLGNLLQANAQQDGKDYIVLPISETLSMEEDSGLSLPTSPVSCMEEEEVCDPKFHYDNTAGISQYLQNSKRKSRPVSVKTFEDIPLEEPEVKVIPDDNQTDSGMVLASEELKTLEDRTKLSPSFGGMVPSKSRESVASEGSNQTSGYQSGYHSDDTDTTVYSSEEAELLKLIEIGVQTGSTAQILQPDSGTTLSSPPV

Compound | IC50
O=C(Nc1cccc(C(F)(F)F)c1)c1c[nH]c2cccc(SCc3ccncc3)c12 | 309 nM

Each compound was assayed against T1, Vascular endothelial growth factor receptor 2 (assay: Inhibition of KDR assessed as phosphorylation level of substrate at 10 uM by ELISA).

Compound | inhibition
Cc1cc(C)cc(NC(=O)c2c[nH]c3cccc(SCc4ccncc4)c23)c1 | 35%
O=C(Nc1ccc(Cl)cc1)c1c[nH]c2cccc(OCc3ccncc3)c12 | 9%
O=C(Nc1cccc(Cl)c1)c1c[nH]c2cccc(SCc3ccncc3)c12 | 35%
O=C(Nc1cccc(C(F)(F)F)c1)c1c[nH]c2cccc(SCc3ccncc3)c12 | 92%
O=C(Nc1cccc(Cl)c1)c1c[nH]c2cccc(NCc3ccncc3)c12 | 18%
O=C(Nc1ccc2c(c1)CCC2)c1c[nH]c2cccc(SCc3ccncc3)c12 | 59%
Cc1cccc(NC(=O)c2c[nH]c3cccc(NCc4ccncc4)c23)c1 | 18%
O=C(Nc1cccc(C(F)(F)F)c1)c1c[nH]c2cccc(OCc3ccncc3)c12 | 4%
O=C(Nc1ccc2c(c1)CCC2)c1c[nH]c2cccc(OCc3ccncc3)c12 | 19%
O=C(Nc1ccc(OC(F)(F)F)cc1)c1c[nH]c2cccc(SCc3ccncc3)c12 | 35%
CC(C)(C)c1ccc(NC(=O)c2c[nH]c3cccc(OCc4ccncc4)c23)cc1 | 6%
O=C(Nc1cc2ccccc2cn1)c1c[nH]c2cccc(NCc3ccncc3)c12 | 55%
O=C(Nc1ccc(Cl)cc1)c1c[nH]c2cccc(NCc3ccncc3)c12 | 23%
CC(C)(C)c1ccc(NC(=O)c2c[nH]c3cccc(NCc4ccncc4)c23)cc1 | 25%
Cc1cccc(NC(=O)c2c[nH]c3cccc(SCc4ccncc4)c23)c1 | 52%
O=C(Nc1ccc(OC(F)(F)F)cc1)c1c[nH]c2cccc(NCc3ccncc3)c12 | 14%
O=C(Nc1ccc(Cl)cc1)c1c[nH]c2cccc(SCc3ccncc3)c12 | 34%
CC(C)(C)c1ccc(NC(=O)c2c[nH]c3cccc(SCc4ccncc4)c23)cc1 | 51%
O=C(Nc1ccc2c(c1)CCC2)c1c[nH]c2cccc(NCc3ccncc3)c12 | 27%
O=C(Nc1cc2ccccc2cn1)c1c[nH]c2cccc(SCc3ccncc3)c12 | 74%
Cc1cc(C)cc(NC(=O)c2c[nH]c3cccc(NCc4ccncc4)c23)c1 | 19%
O=C(Nc1cccc(C(F)(F)F)c1)c1c[nH]c2cccc(NCc3ccncc3)c12 | 25%
